The text below walks through data of US20250171437A1 (Agios Pharmaceuticals,Inc., priority 2022, published 2025).

The target of one assay is T1, human PAH with the R408W mutation (A375 R408W cells) (Homo sapiens, UniProt P00439, R408W).
T1 construct: expressed in transfected cells
T1 sequence (P00439 1-452 R408W): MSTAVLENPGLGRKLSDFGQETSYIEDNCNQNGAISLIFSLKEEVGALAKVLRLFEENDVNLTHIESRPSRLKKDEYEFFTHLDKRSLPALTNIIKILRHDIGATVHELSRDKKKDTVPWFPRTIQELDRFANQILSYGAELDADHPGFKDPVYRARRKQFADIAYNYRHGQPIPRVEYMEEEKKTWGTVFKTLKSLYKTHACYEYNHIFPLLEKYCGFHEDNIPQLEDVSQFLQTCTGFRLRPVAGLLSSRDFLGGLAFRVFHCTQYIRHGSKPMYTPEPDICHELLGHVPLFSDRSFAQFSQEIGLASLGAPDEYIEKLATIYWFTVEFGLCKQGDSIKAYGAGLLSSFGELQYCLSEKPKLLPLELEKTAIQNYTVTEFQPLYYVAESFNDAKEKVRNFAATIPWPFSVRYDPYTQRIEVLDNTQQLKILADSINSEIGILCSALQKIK
In words: Cell Based Phenylalanine Flux Assay. The settings on record: A375 R408W cells; 24 hrs with compound, then 20 μM sepiapterin and 800 μM 13C9,15N-Phenylalanine for 4 hours; 13C-Tyrosine by LC-MS; average where tested multiple times. In short, it runs like this:
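Stable R408W PAH A375 cells: 24 h compound pretreatment in duplicate, then 4 h with 800 μM isotope-labelled Phe and 20 μM sepiapterin. Labelled Tyr output by LC-MS; AC50 averaged where repeated.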
For the molecule `CC(C)(O)c1nc(C(F)F)c(C(=O)N2CCc3[nH]cnc3[C@H]2c2nc3cc(F)cc(F)c3o2)o1` [Example 307, (S)-(4-(5,7-difluorobenzo[d]oxazol-2-yl)-6,7-dihydro-1H-imidazo[4,5-c]pyridin-5(4H)-yl)(4-(difluoromethyl)-2-(2-hydroxypropan-2-yl)oxazol-5-yl)methanone], the AC50 was no more than 500 nM. On the same count and under the same terms, then `O=C(c1ccnn1C(F)(F)F)N1CCc2[nH]cnc2[C@@H]1c1nc2cc(F)ccc2o1` [Example 262, (R)-(4-(5-fluorobenzo[d]oxazol-2-yl)-6,7-dihydro-1H-imidazo[4,5-c]pyridin-5(4H)-yl)(1-(trifluoromethyl)-1H-pyrazol-5-yl)methanone], with 500 to 1000 nM; and `O=C(c1ocnc1C(F)(F)F)N1Cc2[nH]cnc2[C@@H]1c1nc2ccccc2o1` [Example 943, (R)-(4-(benzo[d]oxazol-2-yl)-4,6-dihydropyrrolo[3,4-d]imidazol-5(1H)-yl)(4-(trifluoromethyl)oxazol-5-yl)methanone], with 1000 to 5000 nM; and `CCn1cnnc1C(=O)N1CCc2[nH]cnc2[C@@H]1c1nc2cc(F)ccc2o1` [Example 886, (R)-(4-ethyl-4H-1,2,4-triazol-3-yl)(4-(5-fluorobenzo[d]oxazol-2-yl)-6,7-dihydro-1H-imidazo[4,5-c]pyridin-5(4H)-yl)methanone], with 1000 to 5000 nM.

With `Cn1nc(C(F)F)nc1C(=O)N1CCc2[nH]cnc2[C@@H]1c1nc2cccc(F)c2o1` [Example 286, (R)-(3-(difluoromethyl)-1-methyl-1H-1,2,4-triazol-5-yl)(4-(7-fluorobenzo[d]oxazol-2-yl)-6,7-dihydro-1H-imidazo[4,5-c]pyridin-5(4H)-yl)methanone], the AC50 is 1000 to 5000 nM. Same read-out and setting: then `Cc1cc(F)c2oc([C@@H]3c4nc[nH]c4CCN3C(=O)c3ocnc3C(F)F)nc2c1` [Example 501, (S)-(4-(difluoromethyl)oxazol-5-yl)(4-(7-fluoro-5-methylbenzo[d]oxazol-2-yl)-6,7-dihydro-1H-imidazo[4,5-c]pyridin-5(4H)-yl)methanone], with no more than 500 nM.

For `O=C(c1cnn(-c2ccccn2)c1)N1CCc2[nH]cnc2[C@@H]1c1nc2cc(F)ccc2o1` [Example 880, (R)-(4-(5-fluorobenzo[d]oxazol-2-yl)-6,7-dihydro-1H-imidazo[4,5-c]pyridin-5(4H)-yl)(1-(pyridin-2-yl)-1H-pyrazol-4-yl)methanone], the half-maximal activity concentration (AC50) fell in the range of 1000 to 5000 nM. As for `C[C@H](O)c1nc(C(F)F)c(C(=O)N2CCc3[nH]cnc3[C@H]2c2nc3cc(F)ccc3o2)o1` [Example 157, (4-(difluoromethyl)-2-((S)-1-hydroxyethyl)oxazol-5-yl)((S)-4-(5-fluorobenzo[d]oxazol-2-yl)-6,7-dihydro-1H-imidazo[4,5-c]pyridin-5(4H)-yl)methanone], the concentration at half-maximal activity (AC50) was 500 to 1000 nM. Same read-out and setting: the value for `O=C(c1oc(-c2ccccn2)nc1C(F)F)N1CCc2[nH]cnc2[C@H]1c1nc2cccc(F)c2o1` [Example 587, (S)-(4-(difluoromethyl)-2-(pyridin-2-yl)oxazol-5-yl)(4-(7-fluorobenzo[d]oxazol-2-yl)-6,7-dihydro-1H-imidazo[4,5-c]pyridin-5(4H)-yl)methanone] was no more than 500 nM; that for `FC(F)(F)c1nnc(N2Cc3[nH]cnc3[C@@H]2c2nc3ccccc3o2)o1` [Example 945, (R)-2-(5-(5-(trifluoromethyl)-1,3,4-oxadiazol-2-yl)-1,4,5,6-tetrahydropyrrolo[3,4-d]imidazol-4-yl)benzo[d]oxazole] was no less than 5000 nM; that for `O=C(c1nnc(-c2ccn(C(F)F)n2)o1)N1CCc2[nH]cnc2[C@@H]1c1nc2cc(F)ccc2o1` [Example 114, (R)-(5-(1-(difluoromethyl)-1H-pyrazol-3-yl)-1,3,4-oxadiazol-2-yl)(4-(5-fluorobenzo[d]oxazol-2-yl)-6,7-dihydro-1H-imidazo[4,5-c]pyridin-5(4H)-yl)methanone] was 1000 to 5000 nM. Same read-out and setting: the value for `O=C(c1ccnn1C(F)(F)F)N1CCc2[nH]cnc2[C@@H]1c1nc2c(F)cccc2o1` [Example 294, (R)-(4-(4-fluorobenzo[d]oxazol-2-yl)-6,7-dihydro-1H-imidazo[4,5-c]pyridin-5(4H)-yl)(1-(trifluoromethyl)-1H-pyrazol-5-yl)methanone] was 1000 to 5000 nM; that for `CC(C)(O)c1nc(C(F)F)c(C(=O)N2CCc3[nH]cnc3[C@@H]2c2nc3c(F)cccc3o2)o1` [Example 200, (R)-(4-(difluoromethyl)-2-(2-hydroxypropan-2-yl)oxazol-5-yl)(4-(4-fluorobenzo[d]oxazol-2-yl)-6,7-dihydro-1H-imidazo[4,5-c]pyridin-5(4H)-yl)methanone] was 1000 to 5000 nM. With `Cn1cc(-c2nnc(C(=O)N3CCc4[nH]cnc4[C@H]3c3nc4cccc(C(F)(F)F)c4o3)o2)cn1` [Example 830, (S)-(5-(1-methyl-1H-pyrazol-4-yl)-1,3,4-oxadiazol-2-yl)(4-(7-(trifluoromethyl)benzo[d]oxazol-2-yl)-6,7-dihydro-1H-imidazo[4,5-c]pyridin-5(4H)-yl)methanone], the half-maximal activity concentration (AC50) lay within 500 to 1000 nM. Still for that read-out and setting: the value for `Cc1cccc2nc([C@H]3c4nc[nH]c4CCN3C(=O)c3nnc(-c4ccn(C)n4)o3)oc12` [Example 870, (R)-(5-(1-methyl-1H-pyrazol-3-yl)-1,3,4-oxadiazol-2-yl)(4-(7-methylbenzo[d]oxazol-2-yl)-6,7-dihydro-1H-imidazo[4,5-c]pyridin-5(4H)-yl)methanone] was 1000 to 5000 nM. Still for that read-out and setting: then `COCc1ccc2c(C(=O)N3CCc4[nH]cnc4[C@@H]3c3nc4cccc(F)c4o3)cnn2c1` [Example 266, (R)-(4-(7-fluorobenzo[d]oxazol-2-yl)-6,7-dihydro-1H-imidazo[4,5-c]pyridin-5(4H)-yl)(6-(methoxymethyl)pyrazolo[1,5-a]pyridin-3-yl)methanone], with no less than 5000 nM; and `O=C(c1ccnn1CC(F)F)N1CCc2[nH]cnc2[C@H]1c1nc2cccc(F)c2o1` [Example 847, (S)-(1-(2,2-difluoroethyl)-1H-pyrazol-5-yl)(4-(7-fluorobenzo[d]oxazol-2-yl)-6,7-dihydro-1H-imidazo[4,5-c]pyridin-5(4H)-yl)methanone], with no more than 500 nM; and `Cn1cc(-c2nc(C(F)F)c(C(=O)N3CCc4[nH]cnc4[C@H]3c3nc4ccccc4o3)o2)cn1` [Example 760, (S)-(4-(benzo[d]oxazol-2-yl)-6,7-dihydro-1H-imidazo[4,5-c]pyridin-5(4H)-yl)(4-(difluoromethyl)-2-(1-methyl-1H-pyrazol-4-yl)oxazol-5-yl)methanone], with no more than 500 nM. The same measure, in the same setting: then `O=C(c1ocnc1C(F)F)N1CCc2[nH]cnc2[C@H]1c1nc2cccc(Cl)c2o1` [Example 425, (S)-(4-(7-chlorobenzo[d]oxazol-2-yl)-6,7-dihydro-1H-imidazo[4,5-c]pyridin-5(4H)-yl)(4-(difluoromethyl)oxazol-5-yl)methanone], with no more than 500 nM.

The same assay, now with this note: A375 cells expressing R408W PAH; 24 hrs with compound, then 20 μM sepiapterin and 800 μM 13C9,15N-Phenylalanine for 4 hours; 13C-Tyrosine by LC-MS; average where tested multiple times.
On to `COC(C)(C)c1nc(C)c(C(=O)N2CCc3[nH]cnc3C2c2nc3cc(F)ccc3o2)o1` (centres unmarked), for which the AC50 fell in the range of 1000 to 5000 nM.

With `NCc1ccc2c(C(=O)N3CCc4[nH]cnc4C3c3nc4cc(F)ccc4o3)cnn2c1` (centres unmarked), the AC50 was no less than 5000 nM.

Regarding `CC1CN(C(=O)c2oc(C(C)(C)O)nc2C(F)F)C(c2nc3cc(F)ccc3o2)c2nc[nH]c21` (centres unmarked), the half-maximal activity concentration (AC50) is no less than 5000 nM. Consider `Cc1nc(C(=O)N2CCc3[nH]cnc3C2c2nc3c(F)ccc(F)c3o2)n(C)n1` (centres unmarked), for which the AC50 was in the range of 1000 to 5000 nM. Still for that read-out and setting: then `Cn1nc(C(F)(F)F)nc1C(=O)N1CCc2[nH]cnc2C1c1nc2cc(F)ccc2o1` (centres unmarked), with 1000 to 5000 nM; and `CC(C)(O)c1ncc(C(=O)N2CCc3[nH]cnc3C2c2nc3c(F)cc(F)cc3o2)o1` (centres unmarked), with 1000 to 5000 nM; and `O=C(c1ccn(-c2ccccn2)n1)N1CCc2[nH]cnc2C1c1nc2cccc(F)c2o1` (centres unmarked), with 1000 to 5000 nM. Same read-out and setting: the value for `CC(C)(O)c1noc(C(=O)N2CCc3[nH]cnc3C2c2nc3cccc(F)c3o2)n1` (centres unmarked) was 1000 to 5000 nM. With `CN(C)CCCc1ccc2c(C(=O)N3CCc4[nH]cnc4C3c3nc4cc(F)ccc4o3)cnn2c1` (centres unmarked), the AC50 was no less than 5000 nM. The same measure, in the same setting: the value for `N#Cc1ccc2c(C(=O)N3CCc4[nH]cnc4C3c3nc4cc(F)ccc4o3)cnn2c1` (centres unmarked) was 1000 to 5000 nM.

`CC(C)(O)c1ncc(C(=O)N2CCc3[nH]cnc3C2c2nc3c(F)c(F)ccc3o2)o1` (centres unmarked): the AC50 lay in the range of 1000 to 5000 nM. `O=C(c1cnn2cc(Cl)ccc12)N1CCc2[nH]cnc2C1c1nc2cc(F)ccc2o1` (centres unmarked): the AC50 was in the range of 1000 to 5000 nM.

Regarding `CC(C)(O)C1CCN(c2ccc3c(C(=O)N4CCc5[nH]cnc5C4c4nc5cc(F)ccc5o4)cnn3c2)CC1` (centres unmarked), the AC50 was in the range of 1000 to 5000 nM.

As to `CC(C)(O)c1ncc(C(=O)N2CCc3[nH]cnc3C2c2nc3ccccc3o2)o1` (centres unmarked), the half-maximal activity concentration (AC50) is 1000 to 5000 nM.

In the case of `O=C(CCc1cncs1)N1CCc2[nH]cnc2[C@H]1c1nc2c(F)cccc2o1` (single isomer, unassigned), the half-maximal activity concentration (AC50) lay in the range of 1000 to 5000 nM. The same measure, in the same setting: the value for `N#Cc1nc(N2CCC(F)CC2)oc1C(=O)N1CCc2[nH]cnc2C1c1nc2cc(F)ccc2o1` (centres unmarked) was no less than 5000 nM.

The AC50 is the midpoint of the concentration-response curve, whichever way the signal moves.
